Source: PMC12374581 (European journal of medicinal chemistry, 2025)
Values joined by “and” are separate entries in the source; they are usually repeats but may differ in a detail not shown here. Equal values may be shown once. Read-outs that look alike come from different tables or passages of the source.

How the values were obtained:
[1] = molecular target: human μ opioid receptor (OPRM1) (Homo sapiens, UniProt P35372); experiment: cell-based; type: cell-based; conditions: for Emax: OPRM1, read-out: MOR cAMP %Emax ± SEM
Sequence of human μ opioid receptor (OPRM1) (P35372 whole entry): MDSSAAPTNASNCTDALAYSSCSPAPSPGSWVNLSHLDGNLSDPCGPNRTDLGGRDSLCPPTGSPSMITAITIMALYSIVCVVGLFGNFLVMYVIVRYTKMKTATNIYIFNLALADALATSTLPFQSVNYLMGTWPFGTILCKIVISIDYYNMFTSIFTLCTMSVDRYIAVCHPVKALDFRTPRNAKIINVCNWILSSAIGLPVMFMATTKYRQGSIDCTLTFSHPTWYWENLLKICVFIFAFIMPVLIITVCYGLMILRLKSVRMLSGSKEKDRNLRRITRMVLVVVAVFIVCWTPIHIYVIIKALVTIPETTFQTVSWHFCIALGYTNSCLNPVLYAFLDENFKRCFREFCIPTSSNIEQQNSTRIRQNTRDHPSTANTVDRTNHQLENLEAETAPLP

[2] = molecular target: human μ opioid receptor β-arrestin-2 (Homo sapiens, UniProt P35372); experiment: cell-based; conditions: for Emax: read-out: β-Arrestin Recruitment %Emax ± SEM
Sequence of human μ opioid receptor β-arrestin-2 (P35372 whole entry): as above

in vitro [3] = conditions: human, microsomes
in vitro [4] = conditions: mouse, microsomes
[5] = molecular target: human δ opioid receptor (OPRD1) (Homo sapiens, UniProt P41143); experiment: cell-based; type: cell-based; conditions: for Emax: read-out: DOR cAMP Emax ± SEM (%)
Sequence of human δ opioid receptor (OPRD1) (P41143 whole entry): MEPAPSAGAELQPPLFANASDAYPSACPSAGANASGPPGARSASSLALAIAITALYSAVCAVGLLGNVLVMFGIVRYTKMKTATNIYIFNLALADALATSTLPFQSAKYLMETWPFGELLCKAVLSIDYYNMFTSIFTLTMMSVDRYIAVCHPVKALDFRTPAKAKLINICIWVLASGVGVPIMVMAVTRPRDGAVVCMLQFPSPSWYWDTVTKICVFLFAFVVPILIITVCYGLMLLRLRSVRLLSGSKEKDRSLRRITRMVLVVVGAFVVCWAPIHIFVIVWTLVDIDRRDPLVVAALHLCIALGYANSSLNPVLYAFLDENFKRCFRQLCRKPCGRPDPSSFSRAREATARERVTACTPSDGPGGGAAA

[6] = molecular target: κ opioid receptor (OPRK1) (Homo sapiens, UniProt P41145); experiment: cell-based; conditions: for Emax: read-out: KOR cAMP Emax ± SEM (%)
Sequence of κ opioid receptor (OPRK1) (P41145 whole entry): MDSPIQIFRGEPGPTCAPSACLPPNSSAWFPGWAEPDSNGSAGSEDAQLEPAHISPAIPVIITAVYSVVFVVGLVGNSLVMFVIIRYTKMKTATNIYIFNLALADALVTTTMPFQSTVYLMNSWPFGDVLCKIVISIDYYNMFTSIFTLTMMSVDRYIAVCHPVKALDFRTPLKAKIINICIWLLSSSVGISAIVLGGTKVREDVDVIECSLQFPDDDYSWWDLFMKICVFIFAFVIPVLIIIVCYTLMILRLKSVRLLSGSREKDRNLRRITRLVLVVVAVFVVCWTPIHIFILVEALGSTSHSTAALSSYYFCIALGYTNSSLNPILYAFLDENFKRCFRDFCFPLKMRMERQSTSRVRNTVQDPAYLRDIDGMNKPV

[7] = molecular target: nociceptin receptor (OPRL1) (Homo sapiens, UniProt P41146); experiment: cell-based; type: cell-based; conditions: for Emax: read-out: NOR cAMP Emax ± SEM (%)
Sequence of nociceptin receptor (OPRL1) (P41146 whole entry): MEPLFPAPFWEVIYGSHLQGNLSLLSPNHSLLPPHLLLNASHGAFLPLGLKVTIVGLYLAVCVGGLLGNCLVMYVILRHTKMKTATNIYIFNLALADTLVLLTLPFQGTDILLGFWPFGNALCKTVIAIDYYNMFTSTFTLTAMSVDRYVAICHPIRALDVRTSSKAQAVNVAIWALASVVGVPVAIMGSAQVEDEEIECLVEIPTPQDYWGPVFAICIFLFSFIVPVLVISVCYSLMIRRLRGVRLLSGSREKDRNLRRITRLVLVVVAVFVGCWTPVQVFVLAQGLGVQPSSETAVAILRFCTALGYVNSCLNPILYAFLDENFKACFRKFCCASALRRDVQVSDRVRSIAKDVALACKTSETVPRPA

B6129/F1 hybrid mice [8] = experiment: Hot plate test; type: in vivo, mouse; conditions: for ED50: Mus musculus, read-out: ED50 (antinociception, hot plate); for in vivo agonist profile (antinociception): hot plate, mice; for in vivo agonist profile (antinociception) / Emax (maximal possible effect at the highest dose, hot plate): i.p.; for Emax (maximal possible effect at the highest dose, hot plate): cumulative doses, B6129/F1 mice, nonlinear regression
B6129/F1 hybrid mice [9] = experiment: Naloxone pre-treatment antagonist study in hot plate test; type: in vivo, mouse; conditions: naloxone 10 mg/kg pretreatment, agonist 10 mg/kg
[10] = Solubility observed for in vivo dosing
[11] = read-out: β-Arrestin Recruitment EC50

Oc1ccc(N2C3CCC2CN(CCCc2ccccc2)C3)cc1 [Compound 1, 4-(3-(3-Phenylpropyl)-3,8-diazabicyclo[3.2.1]octan-8-yl)phenol]
EC50 [1]: 250 nM
fold reduction in MOR cAMP potency compared to atoxifent [1]: 700 fold
Emax [1]: 58.7 ± 5.8%
EC50 [2]: > 10000 nM
Emax [2]: 0%
EC50 [2, 11]: > 10000 nM

OCc1cccc(N2C3CCC2CN(CCCc2ccccc2)C3)c1 [Compound 3, (3-(3-(3-Phenylpropyl)-3,8-diazabicyclo[3.2.1]octan-8-yl)phenyl)methanol]
EC50 [1]: 20 nM
Emax [1]: 102 ± 1.1%

CC(C)(O)c1cccc(N2C3CCC2CN(CCCc2ccccc2)C3)c1 [Compound 4, 2-(3-(3-(3-Phenylpropyl)-3,8-diazabicyclo[3.2.1]octan-8-yl)phenyl)propan-2-ol]
EC50 [1]: 250 nM
fold decrease in MOR cAMP activity compared to 3 [1]: 12 fold
Emax [1]: 107.8 ± 0.9%

OC1(c2cccc(N3C4CCC3CN(CCCc3ccccc3)C4)c2)COC1 [Compound 5, 3-(3-(3-(3-Phenylpropyl)-3,8-diazabicyclo[3.2.1]octan-8-yl)phenyl)oxetan-3-ol]
EC50 [1]: 63 nM
Emax [1]: 102.6 ± 0.5%

Oc1cc(Cl)cc(N2C3CCC2CN(CCCc2ccccc2)C3)c1 [Compound 6, 3-Chloro-5-(3-(3-phenylpropyl)-3,8-diazabicyclo[3.2.1]octan-8-yl)phenol]
EC50 [1]: 20 nM
Emax [1]: 99.6 ± 1.1%

Oc1cc(F)cc(N2C3CCC2CN(CCCc2ccccc2)C3)c1 [Compound 8, 3-Fluoro-5-(3-(3-phenylpropyl)-3,8-diazabicyclo[3.2.1]octan-8-yl)phenol]
EC50 [1]: 0.79 nM
Emax [1]: 99.9 ± 0.6%
EC50 [2]: > 10000 nM
Emax [2]: 0%
EC50 [2, 11]: > 10000 nM
half-life (in vitro [3]): 26.6 min
half-life (in vitro [4]): 3.3 min

FC(F)c1cccc(N2C3CCC2CN(CCCc2ccccc2)C3)c1 [Compound 9, 8-(3-(Difluoromethyl)phenyl)-3-(3-phenylpropyl)-3,8-diazabicyclo[3.2.1]octane]
EC50 [1]: 13 nM
Emax [1]: 102.6 ± 1%
EC50 [2]: > 10000 nM
EC50 [2, 11]: > 10000 nM

O=[N+]([O-])c1cccc(N2C3CCC2CN(CCCc2ccccc2)C3)c1 [Compound 10, 8-(3-Nitrophenyl)-3-(3-phenylpropyl)-3,8-diazabicyclo[3.2.1]octane]
EC50 [1]: 10 nM
Emax [1]: 100.6 ± 0.4%
EC50 [2]: > 10000 nM
Emax [2]: 0%
EC50 [2, 11]: > 10000 nM

Nc1cccc(N2C3CCC2CN(CCCc2ccccc2)C3)c1 [Compound 11, 3-(3-(3-Phenylpropyl)-3,8-diazabicyclo[3.2.1]octan-8-yl)aniline]
EC50 [1]: 0.25 nM
Emax [1]: 104 ± 2.4%
EC50 [2]: > 10000 nM
Emax [2]: 0%
EC50 [2, 11]: > 10000 nM
EC50 [5]: 1.6 nM
Emax [5]: 71.1 ± 3.6%
EC50 [6]: > 10000 nM
Emax [6]: 0%
EC50 ([7]; NOR cAMP EC50 (nM)): > 10000 nM
EC50 ([7]; NOR cAMP pEC50± SEM): > 10000 nM
Emax [7]: 0%
ED50 (B6129/F1 hybrid mice [8]; ip): 0.849 mg/kg
in vivo agonist profile (antinociception) (B6129/F1 hybrid mice [8]): partial agonists
Emax (maximal possible effect at the highest dose, hot plate) (B6129/F1 hybrid mice [8]): 43.86 % MPE and 44 % MPE
effect of naloxone pretreatment on antinociceptive effects (B6129/F1 hybrid mice [9]): antagonized by naloxone
half-life (in vitro [3]): 36.5 min
half-life (in vitro [4]): 3.5 min
solubility (in words) [10]: poorly soluble

O=S(=O)(Nc1cccc(N2C3CCC2CN(CCCc2ccccc2)C3)c1)C1CC1 [Compound 12, N-(3-(3-(3-Phenylpropyl)-3,8-diazabicyclo[3.2.1]octan-8-yl)phenyl)cyclopropane-sulfonamide]
EC50 [1]: 0.5 nM
Emax [1]: 98.8 ± 0.4%
EC50 [2]: 25 nM
Emax [2]: 4.3 ± 0.2%
EC50 [5]: 1.6 nM
Emax [5]: 71 ± 4.7%
EC50 [6]: > 10000 nM
Emax [6]: 0%
EC50 ([7]; NOR cAMP EC50 (nM)): > 10000 nM
EC50 ([7]; NOR cAMP pEC50± SEM): > 10000 nM
Emax [7]: 0%
ED50 (B6129/F1 hybrid mice [8]; ip): 2.8 mg/kg
in vivo agonist profile (antinociception) (B6129/F1 hybrid mice [8]): partial agonists
Emax (maximal possible effect at the highest dose, hot plate) (B6129/F1 hybrid mice [8]): 33.45 % MPE and 33 % MPE
effect of naloxone pretreatment on antinociceptive effects (B6129/F1 hybrid mice [9]): antagonized by naloxone
half-life (in vitro [3]): 35.6 min
half-life (in vitro [4]): 6.4 min
solubility (in words) [10]: poorly soluble

NC(=O)c1cccc(N2C3CCC2CN(CCCc2ccccc2)C3)c1 [Compound 13, 3-(3-(3-Phenylpropyl)-3,8-diazabicyclo[3.2.1]octan-8-yl)benzamide]
MOR cAMP pEC50±SEM [1]: 9.6 ± 0.1
Emax [1]: 101.8 ± 0.3%
EC50 ([1]; read-out: MOR cAMP EC50): 0.25 nM
β-Arrestin Recruitment pEC50 ± SEM [2]: 7.8 ± 0.1
Emax [2]: 7.5 ± 1.3%
EC50 [2, 11]: 16 nM
DOR cAMP pEC50±SEM [5]: 8.0 and 8.0 ± 0.2
EC50 ([5]; read-out: DOR cAMP EC50): 10 nM
Emax [5]: 81.3 ± 3%
KOR cAMP pEC50± SEM [6]: < 5.0
EC50 ([6]; read-out: KOR cAMP EC50): > 10000 nM
Emax [6]: 0%
NOR cAMP pEC50± SEM [7]: < 5.0
EC50 ([7]; read-out: NOR cAMP EC50): > 10000 nM
Emax [7]: 0%
ED50 (B6129/F1 hybrid mice [8]; ip): 0.658 mg/kg
in vivo agonist profile (antinociception) (B6129/F1 hybrid mice [8]): partial agonists
Emax (maximal possible effect at the highest dose, hot plate) (B6129/F1 hybrid mice [8]): 31.91 % MPE and 32 % MPE
effect of naloxone pretreatment on antinociceptive effects (B6129/F1 hybrid mice [9]): antagonized by naloxone
half-life (in vitro [3]): 92.7 min
half-life (in vitro [4]): 14.2 min
solubility (in words) [10]: readily soluble

NC(=O)c1ccccc1N1C2CCC1CN(CCCc1ccccc1)C2 [Compound 14, 2-(3-(3-Phenylpropyl)-3,8-diazabicyclo[3.2.1]octan-8-yl)benzamide]
EC50 [1]: 3.2 nM
fold decrease in MOR cAMP activity compared to 13 [1]: ~14 fold
Emax [1]: 101.6 ± 0.6%
EC50 [2]: 700 nM
Emax [2]: 26.5 ± 2.4%

NC(=O)c1ccc(N2C3CCC2CN(CCCc2ccccc2)C3)cc1 [Compound 15, 4-(3-(3-Phenylpropyl)-3,8-diazabicyclo[3.2.1]octan-8-yl)benzamide]
EC50 [1]: > 10000 nM
EC50 ([1]; read-out: MOR cAMP EC50): > 10000 nM

NC(=O)c1cc(N2C3CCC2CN(CCCc2ccccc2)C3)ccc1O [Compound 16, 2-Hydroxy-5-(3-(3-phenylpropyl)-3,8-diazabicyclo[3.2.1]octan-8-yl)benzamide]
EC50 [1]: 4 nM
Emax [1]: 60.9 ± 3.9%
EC50 [2]: > 10000 nM
Emax [2]: 0%
EC50 [2, 11]: > 10000 nM
EC50 [5]: 16 nM
Emax [5]: 34.8 ± 3%
agonist activity at NORs (in words) [7]: no agonist activity
EC50 ([7]; NOR cAMP EC50 (nM)): > 10000 nM
EC50 ([7]; NOR cAMP pEC50± SEM): > 10000 nM
Emax [7]: 0%
half-life (in vitro [3]): 13 min
half-life (in vitro [4]): 2.1 min

NC(=O)c1cc(N2C3CCC2CN(CCCc2ccccc2)C3)ccc1F [Compound 18, 2-Fluoro-5-(3-(3-phenylpropyl)-3,8-diazabicyclo[3.2.1]octan-8-yl)benzamide]
EC50 [1]: 10 nM
Emax [1]: 100.2 ± 0.5%
EC50 [2]: > 10000 nM
EC50 [2, 11]: > 10000 nM
EC50 [5]: 160 nM
Emax [5]: 56.2 ± 6.2%
EC50 ([7]; NOR cAMP EC50 (nM)): 25 nM
EC50 ([7]; NOR cAMP pEC50± SEM): 25.1 nM
Emax [7]: 41.9 ± 19.3%

NC(=O)c1cccc(N2C3CCC2CN(CCCc2ccccc2)C3)c1F [Compound 19, 2-Fluoro-3-(3-(3-phenylpropyl)-3,8-diazabicyclo[3.2.1]octan-8-yl)benzamide]
EC50 [1]: 2.5 nM
Emax [1]: 101.2 ± 0.6%
EC50 [2]: > 10000 nM
Emax [2]: 0%
EC50 [2, 11]: > 10000 nM
EC50 [5]: 13 nM
Emax [5]: 71.4 ± 1.8%
EC50 ([7]; NOR cAMP EC50 (nM)): 3.2 nM
EC50 ([7]; NOR cAMP pEC50± SEM): 3.16 nM
Emax [7]: 19.5 ± 3.4%

c1ccc(CCCN2CC3CCC(C2)N3c2cccc(-c3ncco3)c2)cc1 [Compound 20, 2-(3-(3-(3-Phenylpropyl)-3,8-diazabicyclo[3.2.1]octan-8-yl)phenyl)oxazole]
EC50 [1]: 320 nM
Emax [1]: 100 ± 0.1%

C[C@@H](NC(=O)[C@@H](N)Cc1ccc(O)cc1)C(=O)NCC(=O)N(C)[C@@H](Cc1ccccc1)C(=O)NCCO [DAMGO, reference compound]
Emax [2]: 102.3 ± 0.2%

Buprenorphine [reference compound]
ED50 (antinociception, hot plate) (B6129/F1 hybrid mice [8]; mouse, in vivo, ip): 0.6441 mg/kg
